Data set [1] is described as follows: Compound stability in human liver microsomes. Format: in vitro ADME. The following applies: pH 7.4; for half-life at 5 μM: human liver microsomes 0.5 mg protein/mL, compound 5 μM, NADPH 1.0 mM, 37° C., read-out: Human T1/2; for CLint scaled at 5 μM: human liver microsomes, in vivo CLint extrapolated. As for the experimental part: (§1) Human or rat liver microsomes incubations were conducted in duplicate in polypropylene tubes. The typical incubation mixtures consisted of human or rat liver microsomes (0.5 mg protein/mL), compounds of interest (5 μM) and NADPH (1.0 mM) in a total volume of 200 μL potassium phosphate buffer (PBS, 100 mM, pH 7.4). Compounds were dissolved in DMSO and diluted with PBS such that the final concentration of DMSO was 0.05%. The enzymatic reactions were commenced with the addition of protein after a 3-min preincubation and incubated in a water bath open to the air at 37° C. Reactions were terminated at various time points (0, 5, 10, 15, 30, 60 min) by adding equal volume of ice-cold acetonitrile. The samples were stored at −80° C. until LC/MS/MS assays.
(§2) The concentrations of compounds in the incubation mixtures of human or rat liver microsomes were determined by a LC/MS/MS method. The ranges of the linearity in the concentration range were determined for each tested compounds.
(§3) A parallel incubation was performed using denatured microsomes as the negative control, and reactions were terminated at various time points (0, 15, 60 min) after incubation at 37° C.
(§4) Dextromethorphan (70 μM) was selected as the positive control, and reactions were terminated at various time points (0, 5, 10, 15, 30, 60 min) after incubation at 37° C. Both positive and negative control samples were included in each assay to ensure the integrity of the microsomal incubation system.
(§5) The concentrations of compounds in human or rat liver microsome incubations were plotted as a percentage of the relevant zero time point control for each reaction. The in vivo CLint were extrapolated (ref.: Naritomi, Y.; Terashita, S.; Kimura, S.; Suzuki, A.; Kagayama, A.; and Sugiyama, Y.; Prediction of human hepatic clearance from in vivo animal experiments and in vitro metabolic studies with liver microsomes from animals and humans. Drug Metab. Dispos., 2001, 29: 1316-1324).

The nature of data set [2]: Compound stability in rat liver microsomes. It counts as in vitro ADME. Particulars: pH 7.4; for half-life at 5 μM: rat liver microsomes 0.5 mg protein/mL, compound 5 μM, NADPH 1.0 mM, 37° C., read-out: Rat T1/2; for CLint scaled at 5 μM: rat liver microsomes, in vivo CLint extrapolated. Here is the method:
as §1, §2, §3, §4, §5

Data set [3] in a line: Pharmacokinetics after intravenous and oral administration in rats. The following applies: for F: oral bioavailability; for AUC(0-t) / half-life / Vd: rat, plasma; for Clearance (CL) after iv dosing / AUC(0-t) / half-life / Vd: iv dosing; for Vd: read-out: Vss. It counts as in vivo. As for the experimental part:
The compounds disclosed herein are assessed in pharmacokinetic studies in mice, rats, dogs or monkeys. The compounds are administered as a water solution, 2% HPMC+1% TWEEN®80 in water solution, 5% DMSO+5% solutol in saline, 4% MC suspension or capsule. For the intravenous administration, the animals are generally given at 0.5, 1 or 2 mg/kg dose. For the oral (p.o.) dosing, mice and rats are generally given 0.5, 1, 5 or 10 mg/kg dose, and dogs and monkeys are generally given 10 mg/kg dose. The blood samples (0.3 mL) are drawn at 0.25, 0.5, 1.0, 2.0, 3.0, 4.0, 6.0, 8.0, 12 and 24 h time points or 0.083, 0.25, 0.5, 1.0, 2.0, 4.0, 6.0, 8.0 and 24 h time points and centrifuged at 3,000 or 4000 rpm for 2 to 10 min. The plasma solutions are collected, and stored at −20° C. or −70° C. until analyzed by LC/MS/MS as described above.

Where two headings read alike, the source gives them in different places.

Consider `CC(=O)N1CC2CC(Nc3nc(Nc4cnn(C5CCCNC5)c4)ncc3Cl)CC2C1` (centres unmarked) [Ex. 4, 1-(5-((5-chloro-2-((1-(piperidin-3-yl)-1H-pyrazol-4-yl)amino)pyrimidin-4-yl)amino)hexahydrocyclopenta[c]pyrrol-2(1H)-yl)ethanone], for which, in data set [1], the half-life at 5 μM stood at 951 min and the CLint scaled at 5 μM is 0.11 L/h/kg. Also, in data set [2], the half-life at 5 μM stood at 68.7 min and the CLint scaled at 5 μM was 2.17 L/h/kg.
Consider `N#CCC(=O)N1CC2CC(Nc3nc(Nc4cnn(C5CCNCC5)c4)ncc3Cl)CC2C1` (centres unmarked) [Ex. 5, 3-(5-((5-chloro-2-((1-(piperidin-4-yl)-1H-pyrazol-4-yl)amino)pyrimidin-4-yl)amino)hexahydrocyclopenta[c]pyrrol-2(1H)-yl)-3-oxopropanenitrile], for which, in data set [1], the half-life at 5 μM was determined as 1040 min and the CLint scaled at 5 μM is 0.0996 L/h/kg.
For `Cn1cc(Nc2ncc(Cl)c(NC3CCC4(CC3)CCN(C(=O)C3CC3)CC4)n2)cn1` [Ex. 22, (9-((5-chloro-2-((1-methyl-1H-pyrazol-4-yl)amino)pyrimidin-4-yl)amino)-3-azaspiro[5.5]undecan-3-yl)(cyclopropyl)methanone], in data set [3] (dose 1 mg/kg), the “Clearance (CL) after iv dosing” value is on record as 1.34 L/h/kg, the AUC(0-t) is 0.746 µg·h/mL, the half-life was 33.6 min and the Vd worked out at 1.21 L/kg. Further, the F in data set [3] (iv dose 1 mg/kg) is 84.6%. In data set [1], the half-life at 5 μM worked out at 65.7 min and the CLint scaled at 5 μM was 1.59 L/h/kg. In addition, in data set [2], the half-life at 5 μM turned out to be 3.33 min and the CLint scaled at 5 μM was 44.7 L/h/kg.
For the molecule `CC(=O)N1CC2CC(Nc3nc(Nc4cnn(C5CCNCC5)c4)ncc3Cl)CC2C1` (centres unmarked) [Ex. 6, 1-(5-((5-chloro-2-((1-(piperidin-4-yl)-1H-pyrazol-4-yl)amino)pyrimidin-4-yl)amino)hexahydrocyclopenta[c]pyrrol-2(1H)-yl)ethanone], in data set [1], the half-life at 5 μM is 660 min and the CLint scaled at 5 μM was 0.158 L/h/kg. Besides, in data set [2], the half-life at 5 μM turned out to be 2640 min and the CLint scaled at 5 μM was 0.0564 L/h/kg.
Regarding `CC(=O)N1CC2CC(Nc3nc(Nc4cnn(-c5ccccn5)c4)ncc3Cl)CC2C1` (centres unmarked) [Ex. 8, 1-(5-((5-chloro-2-((1-(pyridin-2-yl)-1H-pyrazol-4-yl)amino)pyrimidin-4-yl)amino)hexahydrocyclopenta[c]pyrrol-2(1H)-yl)ethanone], in data set [3] (dose 1 mg/kg), the “Clearance (CL) after iv dosing” value was found to be 1.86 L/h/kg, the AUC(0-t) was 0.558 µg·h/mL, the half-life was 33.6 min and the Vd is 1.55 L/kg. In addition, in data set [3] (iv dose 1 mg/kg), the F stood at 36.9%. In addition, in data set [1], the half-life at 5 μM came out at 31.4 min and the CLint scaled at 5 μM is 3.32 L/h/kg. Further, in data set [2], the half-life at 5 μM is 16.2 min and the CLint scaled at 5 μM was 9.2 L/h/kg.
For `COc1ccc(-n2cc(Nc3ncc(Cl)c(NC4CC5CN(C(C)=O)CC5C4)n3)cn2)cn1` (centres unmarked) [Ex. 11, 1-(5-((5-chloro-2-((1-(6-methoxypyridin-3-yl)-1H-pyrazol-4-yl)amino)pyrimidin-4-yl)amino)hexahydrocyclopenta[c]pyrrol-2(1H)-yl)ethanone], in data set [3] (dose 1 mg/kg), the “Clearance (CL) after iv dosing” value turned out to be 4.52 L/h/kg, the area under the curve AUC(0-t) came to 0.235 µg·h/mL, the half-life is 18 min and the Vd amounted to 1.22 L/kg. This molecule also gave a F in data set [3] (iv dose 1 mg/kg) of 19.5%.
In the case of `Cn1cc(Nc2ncc(Cl)c(NC3CC4CN(C(=O)N5CCOCC5)CC4C3)n2)cn1` (centres unmarked) [Ex. 29, (5-((5-chloro-2-((1-methyl-1H-pyrazol-4-yl)amino)pyrimidin-4-yl)amino)hexahydrocyclopenta[c]pyrrol-2(1H)-yl)(morpholino)methanone], in data set [3] (dose 1 mg/kg), the “Clearance (CL) after iv dosing” value stood at 2.42 L/h/kg, the AUC(0-t) came out at 0.413 µg·h/mL, the half-life is 21 min and the Vd turned out to be 1.19 L/kg. In data set [3] (iv dose 1 mg/kg), this molecule had an F of 102.8%. In addition, in data set [1], the half-life at 5 μM amounted to 43.2 min and the intrinsic clearance (CLint scaled) at 5 μM is 2.41 L/h/kg. Besides, in data set [2], the half-life at 5 μM was determined as 19.8 min and the CLint scaled at 5 μM was 7.54 L/h/kg.
As for `CC(=O)N1CCC2(CCC(Nc3nc(Nc4cnn(C5CCNCC5)c4)ncc3Cl)CC2)CC1` [Ex. 33, 1-(9-((5-chloro-2-((1-(piperidin-4-yl)-1H-pyrazol-4-yl)amino)pyrimidin-4-yl)amino)-3-azaspiro[5.5]undecan-3-yl)ethanone], in data set [1], the half-life at 5 μM came to 275 min and the CLint scaled at 5 μM is 0.379 L/h/kg. Besides, in data set [2], the half-life at 5 μM was 321 min and the CLint scaled at 5 μM was 0.464 L/h/kg.
Turning to `CC(O)Cn1cc(Nc2nccc(NC3CC4CN(C(=O)NC5CC5)CC4C3)n2)cn1` (centres unmarked) [Ex. 42, N-cyclopropyl-5-((2-((1-(2-hydroxypropyl)-1H-pyrazol-4-yl)amino)pyrimidin-4-yl)amino)hexahydrocyclopenta[c]pyrrole-2(1H)-carboxamide], the half-life at 5 μM is 153 min in data set [1] and 375 min in data set [2]. Besides, the CLint scaled at 5 μM in data set [1] was 0.678 L/h/kg; in data set [2], 0.396 L/h/kg.
`CC(C)(O)Cn1cc(Nc2ncc(Cl)c(NC3CC4CN(C(=O)NC5CC5)CC4C3)n2)cn1` (centres unmarked) [Ex. 36, 5-((5-chloro-2-((1-(2-hydroxy-2-methylpropyl)-1H-pyrazol-4-yl)amino)pyrimidin-4-yl)amino)-N-cyclopropylhexahydrocyclopenta[c]pyrrole-2(1H)-carboxamide]: in data set [1], the half-life at 5 μM was determined as 69.2 min and the CLint scaled at 5 μM was 1.51 L/h/kg. In addition, in data set [2], the half-life at 5 μM came out at 30.7 min and the intrinsic metabolic clearance (CLint scaled) at 5 μM is 4.86 L/h/kg.
As to `CC(=O)N1CC2CC(CC#N)(Nc3nc(Nc4cnn(C)c4)ncc3Cl)CC2C1` (centres unmarked) [Ex. 48, 2-(2-acetyl-5-((5-chloro-2-((1-methyl-1H-pyrazol-4-yl)amino)pyrimidin-4-yl)amino)octahydrocyclopenta[c]pyrrol-5-yl)acetonitrile], in data set [3] (dose 1 mg/kg), the “Clearance (CL) after iv dosing” value is 2.08 L/h/kg, the AUC(0-t) amounted to 0.485 µg·h/mL, the half-life was 43.2 min and the Vd stood at 0.81 L/kg. The F in data set [3] (iv dose 1 mg/kg) is recorded as 40.7%. In data set [1], the half-life at 5 μM is 310 min and the CLint scaled at 5 μM was 0.336 L/h/kg. Further, in data set [2], the half-life at 5 μM is 100 min and the CLint scaled at 5 μM is 1.49 L/h/kg.
Regarding `N#CCC(=O)N1CC2CC(Nc3nc(Nc4cnn(C5CCCNC5)c4)ncc3Cl)CC2C1` (centres unmarked) [Ex. 3, 3-(5-((5-chloro-2-((1-(piperidin-3-yl)-1H-pyrazol-4-yl)amino)pyrimidin-4-yl)amino)hexahydrocyclopenta[c]pyrrol-2(1H)-yl)-3-oxopropanenitrile], in data set [1], the half-life at 5 μM amounted to 555 min and the CLint scaled at 5 μM is 0.188 L/h/kg. In addition, in data set [2], the half-life at 5 μM was found to be 3.88 min and the CLint scaled at 5 μM is 38.4 L/h/kg.
With `Cn1cc(Nc2ncc(Cl)c(NC3CCC4(CC3)CCN(C(=O)CC3CC3)CC4)n2)cn1` [Ex. 20, 1-(9-((5-chloro-2-((1-methyl-1H-pyrazol-4-yl)amino)pyrimidin-4-yl)amino)-3-azaspiro[5.5]undecan-3-yl)-2-cyclopropyl ethanone], in data set [3] (dose 0.5 mg/kg), the “Clearance (CL) after iv dosing” value amounted to 1.48 L/h/kg, the AUC(0-t) amounted to 0.348 µg·h/mL, the half-life is 42 min and the Vd stood at 1.07 L/kg. The same molecule gave a F in data set [3] (iv dose 0.5 mg/kg) of 91.2%.
As to `Cn1cc(Nc2ncc(Cl)c(NC3CC4CN(C(=O)c5ccccc5)CC4C3)n2)cn1` (centres unmarked) [Ex. 27, (5-((5-chloro-2-((1-methyl-1H-pyrazol-4-yl)amino)pyrimidin-4-yl)amino)hexahydrocyclopenta[c]pyrrol-2(1H)-yl)(phenyl)methanone], in data set [3] (dose 1 mg/kg), the “Clearance (CL) after iv dosing” value came out at 4.66 L/h/kg, the exposure AUC(0-t) came to 0.218 µg·h/mL, the half-life was 13.2 min and the Vd came to 0.93 L/kg. Further, the F in data set [3] (iv dose 1 mg/kg) is recorded as 22.5%.

As usually defined, the CLint scaled is the capacity of the preparation to metabolise the compound, expressed as a volume cleared per time. For orientation: AUC(0-t) means exposure summed from dosing to a finite time, without extrapolation to infinity. Read a high AUC(0-t) as high exposure.

Source of the values: patent US9938257B2 (Sunshine Lake Pharma Co., Ltd., priority 2015, dated 2018).
